Tests used:
[1] = tested on: CD4+ T cells in PBMC from people with recent onset T1D; assay: CFSE-based proliferation assay, PBMC of people with T1D; assay type: cell-based, human; details: peptide 10 μM; for Cell division index (CDI): CFSE-labelled PBMC
Protocol: (§1) Blood was obtained by venepuncture. Peripheral blood mononuclear cells (PBMC) were isolated over Ficoll-paque (GE Healthcare) and washed twice in phosphate buffered saline (PBS) as described. The CFSE (5,6-carboxyfluorescein diacetate succinimidyl ester) proliferation assays were performed as described previously. CFSE-labelled PBMC were cultured with either: no antigen, full-length C-peptide (^PI33-63), or ^PI33-63 Q38E (referred to as Q6E), ^PI33-63 Q41E (referred to as Q9E), ^PI33-63 Q54E, (referred to as Q22E) ^PI33-63 Q63E (referred to as Q31E), or ^PI33-63 with all glutamines substituted for glutamic acid, (referred to as QallE). See Supplementary Table 5 for a detailed description of the peptides. Each peptide was used at a final concentration of 10 μM. Positive controls were tetanus toxoid (TT 10LfU/ml, Statens Serum Institut) and/or anti-CD3 (OKT3 10 ng/ml). The results are presented as a cell division index (CDI), the ratio of the number of CD4^+ T cells that have proliferated in the presence of antigen to the number of CD4^+ T cells that have proliferated in the absence of antigen.
(§2) Our analysis of CD4^+ Jurkat lines expressing TCRs derived from primary CD4^+ T cells used TCRs derived from CD4^+ T cells that were selected for their specificity for WT C-peptide. […] This may be due to Q to E substitutions being poorly tolerated by the TCRs that were selected based on their recognition of WT C-peptide. To address this, we measured polyclonal CD4^+ T-cell responses in PBMC from people with recent onset type 1 diabetes. (see Supplementary Tables 5 and 6 for details of each subject). […] Next, in a separate cohort we investigated CD4^+ T-cell responses to the five C-peptide variants with individual Q to E substitutions in PBMC of people with recent onset type 1 diabetes (Fig. 3B). We found, as expected, that a majority of PBMC samples responded to WT C-peptide, but responses to Q to E substituted C-peptide variants were not stronger, in fact in most cases they were weaker, than responses to WT C-peptide. (See Supplementary Tables 7–9 for results from individual subjects). Finally, we asked if people without T1D, but who carried the T1D-associated HLA alleles, HLA-DQ2, or HLA-DQ8 had stronger responses to Q to E substituted C-peptide variants (Fig. 3C). Here few subjects had response to WT C-peptide and only a minority had greater responses to Q to E substituted variants of C-peptide, compared to WT C-peptide.
(§3) Fig. 3 PBMC responses to WT and deamidated C-peptide variants. (A) Proliferation in responses, measured as a cell division index (CDI) to WT or QallE C-peptide were compared in 8 PBMC from 8 people with recent onset T1D. Responses from the same individual are linked. […] (B) PBMC proliferation responses to WT and C-peptide variants with individual Q to E substitution and QallE from people with recent onset T1D (B) and HLA matched control subjects who don't have T1D (C). Only difference which reached statistical significance are marked (* = P < 0.05). For responses in subjects without T1D, none of the differences between groups reached statistical significance, p > 0.05, by Wilcoxon matched pairs signed rank test of Log 10 transformed CDI data. Each point is a different individual, bars show the mean and the standard deviation for each group.

[2] = tested on: CD4+ T cells in PBMC from subjects without T1D; assay: CFSE-based proliferation assay, PBMC of subjects without T1D; assay type: cell-based, human; details: CFSE-labelled PBMC, peptide 10 μM, mean CDI
Protocol: as §1, §2, §3

Row | Sequence | Cell division index (CDI) ([1]; T1D donor 9, mean CDI) | Cell division index (CDI) ([1]; T1D donor 10, mean CDI) | Cell division index (CDI) ([1]; T1D donor 11, mean CDI) | Cell division index (CDI) ([1]; T1D donor 12, mean CDI) | Cell division index (CDI) ([1]; T1D donor 13, mean CDI) | Cell division index (CDI) ([1]; T1D donor 14, mean CDI) | Cell division index (CDI) ([1]; T1D donor 15, mean CDI) | Cell division index (CDI) ([1]; T1D donor 16, mean CDI) | Cell division index (CDI) ([1]; T1D donor 17, mean CDI) | Cell division index (CDI) ([1]; T1D donor 18, mean CDI) | Cell division index (CDI) ([2]; donor 1 without T1D) | Cell division index (CDI) ([2]; donor 2 without T1D) | Cell division index (CDI) ([2]; donor 3 without T1D) | Cell division index (CDI) ([2]; donor 4 without T1D) | Cell division index (CDI) ([2]; donor 5 without T1D) | Cell division index (CDI) ([2]; donor 6 without T1D) | also measured
1 | EAEDLEVGEVELGGGPGAGSLEPLALEGSLE [QallE, C-peptide with all four glutamines substituted for glutamic acid] | 0.3 | 1.0 | 1.0 | 1.4 | 24.7 | 15.1 | 21.3 | 0.7 | 2.0 | 1.5 | 15.8 | 1.2 | 0.9 | 1.3 | 1.7 | 7.8 | CD4+ T-cell proliferation response compared with WT C-peptide ([1]; PBMC from 8 people with recent onset T1D, Fig. 3A, difference not statistically significant): slightly weaker response; Cell division index (CDI) ([1]; T1D donor 1, mean CDI = proliferated CD4+ T cells with antigen / without antigen): 3.5; Cell division index (CDI) ([1]; T1D donor 2, mean CDI): 8.6; Cell division index (CDI) ([1]; T1D donor 3, mean CDI): 2.1; Cell division index (CDI) ([1]; T1D donor 4, mean CDI): 2.9; Cell division index (CDI) ([1]; T1D donor 5, mean CDI): 4.8; Cell division index (CDI) ([1]; T1D donor 6, mean CDI): 1.5; Cell division index (CDI) ([1]; T1D donor 7, mean CDI): 2.5; Cell division index (CDI) ([1]; T1D donor 8, mean CDI): 15.9
2 | EAEDLQVGEVELGGGPGAGSLQPLALEGSLQ [Q9E, C-peptide variant with glutamine 9 substituted for glutamic acid] | 3.9 | 1.3 | 0.8 | 8.0 | 38.4 | 11.1 | 5.1 | 3.7 | 11.3 | 3.4 | 1.0 | 1.4 | 1.2 | 0.8 | 6.1 | 3.4 | –
3 | EAEDLQVGQVELGGGPGAGSLQPLALEGSLE [Q31E, C-peptide variant with glutamine 31 substituted for glutamic acid] | 0.3 | 2.0 | 0.9 | 3.7 | 11.8 | 3.6 | 6.4 | 1.5 | 7.6 | 1.0 | 1.3 | 1.7 | 3.6 | 0.8 | 22.3 | 1.9 | –

— article PMC9811213, “Glutamine deamidation does not increase the immunogenicity of C-peptide in people with type 1 diabetes” (Journal of Translational Autoimmunity, 2022)
